Patent publication US20260234146A1, “Use of Hypoxia-Inducible Factor-Prolyl Hydroxylase Inhibitor (HIF-PHI) in Rare Anemia” (Kind Pharmaceutical, priority 2023, published 2026)

What was measured:
Townes SCD model mouse = experiment: Effect on SCD anemia mice (RBC, Hb, HCT); format: in vivo
Method: Throughout the experimental stage, animals were housed in cages in an animal room with 24-hour continuous central air conditioning, temperature set at 20-26° C., relative air humidity set at 40-70%, and a 12-hour light/dark cycle. All animals had free access to food and sterilized drinking water. The animal strain was B6·Cg-Hbb^tm2(HBG1,HBB)Tow/Hbat^ml(HBA)Tow/ShmtJ mice, a Townes SCD model mouse where mouse endogenous hemoglobin is replaced by knocked-in human hemoglobin. Two weeks after birth, mice were ear-punched for identification, and the ear tissue was collected for PCR analysis to determine its genotype. Mice confirmed as B6·Cg-Hbb^tm2(HBG1,HBB)Tow/Hbat^ml(HBA)Tow/ShmtJ were grouped. […] Blood sampling was performed every other week. Mice showing symptoms of anemia were selected for dosing. Animals were randomly divided into groups, 6 animals per group: Vehicle control group (0.1 M meglumine aqueous solution; oral gavage; volume: 6.67 mL/kg), Comp-1 group (30 mpk; oral gavage; volume: 6.67 mL/kg), and EPO group (50 U/30 g body weight; SC injection; MyBioSource, cat. #: MBS650094, erythropoietin alpha). Dosing was administered three times a week (TIW) for 4 consecutive weeks. On days 14 and 28 of dosing, 70 μL of blood was collected from orbit. Collected blood samples were placed in heparin-anticoagulant tubes. 15 μL of the blood sample from the anticoagulant tube was aspirated and added to an Element HT5 Veterinary Hematology Analyzer. RBC, Hb, and HCT in the blood were measured according to the instrument's operating instructions. Data analysis was performed using GraphPad Prism 9.0. […]

MDS model mice = experiment: Effect on MDS model mice (RBC, Hb, HCT); format: in vivo, C57 mice; settings: 50 U/30 g
[1] = 30 mpk oral gavage TIW group, baseline, average of six mice
[2] = 30 mpk oral gavage TIW, end of the four-week experiment, average of five mice
[3] = 50 U/30 g SC TIW, After 2 weeks of dosing Week 2
[4] = 50 U/30 g SC TIW, After 4 weeks of dosing Week 4
[5] = 50 U/30 g group, Before dosing Week 0

Row | Compound | HCT (Townes SCD model mouse; [1]) [%] | Hb (Townes SCD model mouse; [1]) [g/dL] | RBC (Townes SCD model mouse; [1]) [M/μL] | HCT (Townes SCD model mouse; [2]) [%] | Hb (Townes SCD model mouse; [2]) [g/dL] | RBC (Townes SCD model mouse; [2]) [M/μL] | Mortality (Townes SCD model mouse; 30 mpk, oral gavage, TIW, after two weeks of dosing) | Arithmetic mean of HCT hematocrit (Townes SCD model mouse; [3]) [%] | Arithmetic mean of HGB hemoglobin content (Townes SCD model mouse; [3]) [g/dL] | Arithmetic mean of RBC red blood cell count (Townes SCD model mouse; [3]) [M/μL] | Arithmetic mean of HCT hematocrit (Townes SCD model mouse; [4]) [%] | Arithmetic mean of HGB hemoglobin content (Townes SCD model mouse; [4]) [g/dL] | Arithmetic mean of RBC red blood cell count (Townes SCD model mouse; [4]) [M/μL] | Arithmetic mean of HCT hematocrit (Townes SCD model mouse; [5]) [%] | Arithmetic mean of HGB hemoglobin content (Townes SCD model mouse; [5]) [g/dL] | Arithmetic mean of RBC red blood cell count (Townes SCD model mouse; [5]) [M/μL] | Therapeutic effect in the SCD mouse model (Townes SCD model mouse; 50 U/30 g, SC injection, TIW, 4 weeks) | Improvement of RBC, Hb, or HCT values (MDS model mice)
1 | O=C(O)CNC(=O)C1C(=O)N(C2CCCCC2)C(=O)N(C2CCCCC2)C1=O [Daprodustat, reference compound] | 31.8 | 9.1 | 6.14 | 35.9 | 10.9 | 7.54 | One mouse in the Daprodustat group including six mice in total died |  |  |  |  |  |  |  |  |  |  | 
2 | EPO: EPO positive control; MyBioSource, cat. #: MBS650094, erythropoietin alpha |  |  |  |  |  |  |  | 25.02 | 7.52 | 5.80 | 23.25 | 6.87 | 5.43 | 27.00 | 8.37 | 6.25 | no therapeutic effect in the SCD mouse model | Neither Roxadustat nor EPO improved RBC, Hb, or HCT values
